Laboratory results as given in patent US20250230138A1, “COMPOUNDS HAVING A T-STRUCTURE FORMED BY AT LEAST FOUR CYCLES FOR USE IN THE TREATMENT OF CANCER AND OTHER INDICATIONS” (TheRas, Inc., priority 2022, published 2025).
Read-outs that look alike come from different tables or passages of the source.

Columns and labels:
[1] = target: Cys242 in human PIK3CA (157-299) (Homo sapiens (Human), UniProt P42336); assay: Covalent modification assay using MALDI-TOF MS; type: biochemical; details: 4 h reaction time point
Cys242 in human PIK3CA (157-299), sequence (P42336 157-299): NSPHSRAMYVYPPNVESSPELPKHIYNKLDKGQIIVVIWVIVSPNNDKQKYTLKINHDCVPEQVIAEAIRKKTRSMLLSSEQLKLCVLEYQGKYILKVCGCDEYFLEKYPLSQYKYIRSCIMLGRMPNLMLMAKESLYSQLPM
Method in brief: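 PIK3CA (157-299) at 3.33 μM or 1 μM in 20 mM HEPES, 150 mM NaCl, 2 mM MgCl2, pH 7.3 was incubated with compound (from 10 mM DMSO stocks) in the dark at room temperature for 15 min, 30 min, 2 h or 4 h. Linear-mode MALDI-TOF peak heights gave percent modification.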

pAKT in BT474 cells = assay: Cell-based pAKT HTRF assay in BT474 cells; details: BT474 cells, 4 hr incubation, read-out: pAKT inhibition IC50 in BT474 cells
Method in brief: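 BT474 cells in DMEM/10% FBS were treated the day after seeding with a 9-point, 3-fold compound series from 3 μM (0.25% DMSO) for 4 hr. Lysates were mixed with d2 and Eu cryptate anti-pAKT antibodies and incubated 4-24 h at room temperature. HTRF was read with excitation at 320 nm and emission at 615 nm.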

[2] = 3.33 μM protein target, 1:7.5 protein to compound ratio (compounds 1-852)
[3] = 1 μM protein target, 1:5 protein to compound ratio (compounds 853-1279)
[4] = Homo sapiens, BT-474, Compounds 10-999

SMILES	% of modification [1, 2]	IC50 (pAKT in BT474 cells; Compounds 10-999)	% of modification [1, 3]	IC50 (pAKT in BT474 cells; Compounds 1000-1279)	IC50 (pAKT in BT474 cells; [4])
C=CC(=O)N1CCc2ncc(-c3nc(-c4ccc5c(c4)CCN(C)C5)c4ccsc4c3-c3c(F)cc(F)cc3OC(C)C)cc2C1 [Compound 399]	A (percent of modification of PIK3CA protein ≥75%)	< 0.1 µM	–	–	–
C=CC(=O)N1CCc2nc(-c3nc(N4CCN(C(C)C)CC4)c4ccsc4c3-c3ccc(F)cc3OCCOC)sc2C1 [Compound 140]	A (percent of modification of PIK3CA protein ≥75%)	0.1 to 1 µM	–	–	–
C=CC(=O)N1CCc2ncc(-c3nc(-c4cnc(C)s4)c4ccsc4c3-c3c(F)cc(F)cc3OC(C)C)cc2C1 [Compound 392]	A (percent of modification of PIK3CA protein ≥75%)	< 0.1 µM	–	–	–
C=CC(=O)N1CCn2nc(-c3nc(-c4ccc5c(c4)CCN(C)C5)c4ccsc4c3-c3c(F)cc(F)cc3OC3CC3)cc2C1C (stereo not shown) [Compound 549]	A (percent of modification of PIK3CA protein ≥75%)	< 0.1 µM	–	–	–
C=CC(=O)N1CCc2ncc(-c3nc(-c4cnc(C)o4)c4ccsc4c3-c3c(F)cc(F)cc3OC(C)C)cc2C1 [Compound 455]	A (percent of modification of PIK3CA protein ≥75%)	< 0.1 µM	–	–	–
C=CC(=O)N1CCc2ncc(-c3nc(-c4ccc5nn(C)cc5c4)c4ccsc4c3-c3c(F)cc(F)cc3OCCOC)cc2C1 [Compound 400]	A (percent of modification of PIK3CA protein ≥75%)	< 0.1 µM	–	–	–
C=CC(=O)N1CCc2nc(-c3nc(-c4ccc5c(c4)CCN(C)C5)c4ccsc4c3-c3c(F)cc(F)cc3OC(C)C)sc2C1 [Compound 312]	A (percent of modification of PIK3CA protein ≥75%)	< 0.1 µM	–	–	–
C=CC(=O)N1CCc2nc(-c3nc(-c4cnn(C)c4)c4ccsc4c3-c3ccc(F)cc3OCC3CCN(C)C(=O)C3)sc2C1 (stereo not shown) [Compound 221]	A (percent of modification of PIK3CA protein ≥75%)	< 0.1 µM	–	–	–
C=CC(=O)N1CCn2nc(-c3nc(N4Cc5cn(C)nc5C4)c4ccsc4c3-c3c(F)cc(F)cc3OCCOC)cc2C1C (stereo not shown) [Compound 1230]	–	–	A (percent of modification of PIK3CA protein ≥75%)	0.1 to 1 µM	–
C=CC(=O)N1Cc2cc(-c3nc(-c4ccc5cnncc5c4)c4ccsc4c3-c3c(F)cc(F)cc3OCCO)nn2CC1C (stereo not shown) [Compound 853]	–	< 0.1 µM	A (percent of modification of PIK3CA protein ≥75%)	–	–
C=CC(=O)N1Cc2cc(-c3nc(-c4ccc5c(c4)C(=O)NC5)c4ccsc4c3-c3c(F)cc(F)cc3OCCOC)nn2CC1C (stereo not shown) [Compound 768]	A (percent of modification of PIK3CA protein ≥75%)	< 0.1 µM	–	–	–
C=CC(=O)N1CCn2nc(-c3nc(-c4cncc(Cl)c4)c4ccsc4c3-c3ccc(F)cc3OCCOC)cc2C1 [Compound 203]	A (percent of modification of PIK3CA protein ≥75%)	< 0.1 µM	–	–	–
C=CC(=O)N1CCn2nc(-c3nc(N4CCN(C(C)C)CC4)c4ccsc4c3-c3ccc(F)cc3OC(C)C)cc2C1 [Compound 208]	A (percent of modification of PIK3CA protein ≥75%)	< 0.1 µM	–	–	–
C=CC(=O)N1CCc2ncc(-c3nc(-c4ccc5c(c4)CN(CCOC)CC5(F)F)c4ccsc4c3-c3c(F)cc(F)cc3OCCOC)cc2C1 [Compound 1278]	–	–	A (percent of modification of PIK3CA protein ≥75%)	< 0.1 µM	–
C=CC(=O)N1CCc2nc(-c3nc(-c4cnc5c(c4)CN(C)CC5)c4ccsc4c3-c3c(F)cc(F)cc3OC(C)C)sc2C1 [Compound 309]	A (percent of modification of PIK3CA protein ≥75%)	< 0.1 µM	–	–	–
C=CC(=O)N1CCn2nc(-c3nc(-c4ccc5c(c4)CCNC5=O)c4ccsc4c3-c3ccc(F)cc3OCCOC)nc2C1 [Compound 184]	A (percent of modification of PIK3CA protein ≥75%)	< 0.1 µM	–	–	–
C=CC(=O)N1CC(n2cc(-c3nc(-c4ccc5c(c4)CCNC5)c4ccnn4c3-c3ccc(F)cc3OC)cn2)C1 [Compound 169, 1-[3-[4-[7-(4-fluoro-2-methoxy-phenyl)-4-(1,2,3,4-tetrahydroisoquinolin-6-yl)pyrazolo[1,5-a]pyrazin-6-yl]pyrazol-1-yl]azetidin-1-yl]prop-2-en-1-one]	B (50%<percent of modification <75%)	–	–	–	0.1 to 1 µM
C=CC(=O)N1CCn2nc(-c3nc(-c4cnc5c(c4)CN(C)CC5)c4c(c3-c3c(F)cc(F)cc3OCCOC)CCC4)cc2C1C (stereo not shown) [Compound 1243]	–	–	A (percent of modification of PIK3CA protein ≥75%)	< 0.1 µM	–

SMILES	% of modification [1, 2]	IC50 (pAKT in BT474 cells; Compounds 10-999)	% of modification [1, 3]	IC50 (pAKT in BT474 cells; Compounds 1000-1279)	IC50 (pAKT in BT474 cells; [4])
C=CC(=O)N1CC(n2cc(-c3nc(-c4cnn(C)c(=O)c4)c4ccsc4c3-c3ccc(F)cc3OC)cn2)C1 [Compound 183]	A (percent of modification of PIK3CA protein ≥75%)	0.1 to 1 µM	–	–	–
C=CC(=O)N1CC[C@@H](n2cc(-c3nc(-c4ccc(=O)n(C)c4)c4ccsc4c3-c3c(F)cc(F)cc3OC(C)C)cn2)C1 [Compound 389]	A (percent of modification of PIK3CA protein ≥75%)	< 0.1 µM	–	–	–
C=C(F)C(=O)N1CCn2nc(-c3nc(-c4ccc5c(c4)CCN(C)C5)c4ccsc4c3-c3ccc(F)cc3OCC)cc2C1 [Compound 305]	B (50%<percent of modification <75%)	0.1 to 1 µM	–	–	–
C=CC(=O)N1CCC(n2cc(-c3nc(-c4ccc5c(c4)CNC(=O)C5)c4ccsc4c3-c3ccccc3)cn2)CC1 [Compound 75]	B (50%<percent of modification <75%)	> 3 µM	–	–	–
C=CC(=O)N1CCc2cc(-c3nc(-c4cnc5c(c4)CNC(=O)C5)c4ccsc4c3-c3c(F)cc(F)cc3OC(C)C)nn2CC1 [Compound 568]	A (percent of modification of PIK3CA protein ≥75%)	< 0.1 µM	–	–	–
C=CC(=O)N1Cc2cc(-c3nc(-c4ccc5nn(C)cc5c4)c4ccsc4c3-c3c(F)cc(F)cc3OC[C@@H](C)O)nn2C[C@H]1C [Compound 754]	A (percent of modification of PIK3CA protein ≥75%)	< 0.1 µM	–	–	–
C=CC(=O)N1CCc2nc(-c3nc(N4CCC(N(C)C)CC4)c4ccsc4c3-c3ccc(F)cc3OCCOC)sc2C1 [Compound 175]	A (percent of modification of PIK3CA protein ≥75%)	0.1 to 1 µM	–	–	–
C=CC(=O)N1CCn2nc(-c3nc(-c4cnn(C)c4)c4ccsc4c3-c3ccc(F)cc3OC)cc2C1 [Compound 206, 1-[2-[7-(4-fluoro-2-methoxy-phenyl)-4-(1-methylpyrazol-4-yl)thieno[3,2-c]pyridin-6-yl]-6,7-dihydro-4H-pyrazolo[1,5-a]pyrazin-5-yl]prop-2-en-1-one]	A (percent of modification of PIK3CA protein ≥75%)	–	–	–	< 0.1 µM
C=CC(=O)N1Cc2cc(-c3nc(-c4ccc5c(cnn5C)c4)c4ccsc4c3-c3c(F)cc(F)cc3OCC(C)(C)O)nn2[C@@H](C)C1 [Compound 848]	A (percent of modification of PIK3CA protein ≥75%)	< 0.1 µM	–	–	–
C=CC(=O)N1CCn2nc(-c3nc(-c4ccc(=O)n(C)c4)cnc3-c3ccc(F)cc3OC(C)C)cc2C1 [Compound 273, 5-[5-(4-fluoro-2-isopropoxy-phenyl)-6-(5-prop-2-enoyl-6,7-dihydro-4H-pyrazolo[1,5-a]pyrazin-2-yl)pyrazin-2-yl]-1-methyl-pyridin-2-one]	C (25%≤percent of modification <50%)	–	–	–	> 3 µM
C=CC(=O)N1CCc2nc(-c3nc(-c4ccc5nn(C)cc5c4)c4ccsc4c3-c3c(F)cc(F)cc3OCCOC)sc2C1 [Compound 947]	–	< 0.1 µM	A (percent of modification of PIK3CA protein ≥75%)	–	–
C=CC(=O)N1Cc2cc(-c3nc(-c4cnn(C(C)(C)CO)c4)c4ccsc4c3-c3c(F)cc(F)cc3OCCOC)nn2C[C@H]1C [Compound 738]	A (percent of modification of PIK3CA protein ≥75%)	< 0.1 µM	–	–	–
C=CC(=O)N1C[C@H](C)n2nc(-c3nc(-c4cnn(C)c4)c4ccsc4c3-c3c(F)cc(F)cc3OCCOC)cc2[C@H]1C [Compound 583]	A (percent of modification of PIK3CA protein ≥75%)	< 0.1 µM	–	–	–
C=CC(=O)N1CCc2ncc(-c3nc(-c4cnc5c(c4)CN(C)CC5)c4ccsc4c3-c3c(F)cc(F)cc3OCCOC)cc2C1 [Compound 378]	A (percent of modification of PIK3CA protein ≥75%)	< 0.1 µM	–	–	–
C=CC(=O)N1CCn2nc(-c3nc(-c4ccc5c(c4)CCN(C(C)C)C5)c4ccsc4c3-c3ccc(F)cc3OC(F)F)cc2C1 [Compound 244]	A (percent of modification of PIK3CA protein ≥75%)	< 0.1 µM	–	–	–
C=CC(=O)N1Cc2cc(-c3nc(-c4cnnc(OCCN(C)C)c4)c4ccsc4c3-c3c(F)cc(F)cc3OCCOC)nn2C[C@H]1C [Compound 884]	–	< 0.1 µM	A (percent of modification of PIK3CA protein ≥75%)	–	–
C=CC(=O)N1CCn2nc(-c3nc(-c4ccc5c(c4)CCNC5=O)c4ccsc4c3-c3c(F)cc(F)cc3OCCO)cc2[C@H]1C [Compound 876, 6-((S)-6-((R)-5-acryloyl-4-methyl-4,5,6,7-tetrahydropyrazolo[1,5-a]pyrazin-2-yl)-7-(2,4-difluoro-6-(2-hydroxyethoxy)phenyl)thieno[3,2-c]pyridin-4-yl)-3,4-dihydroisoquinolin-1(2H)-one]	–	–	A (percent of modification of PIK3CA protein ≥75%)	–	< 0.1 µM
